Results from article PMC10433847, “The Plasmodium Lactate/H^+ Transporter PfFNT Is Essential and Druggable In Vivo” (Antimicrobial Agents and Chemotherapy, 2023).

Key:
P. berghei = experiment: 4-day Peters' test, P. berghei-infected mouse malaria model; type: in vivo; conditions: for Activity (%) / Survival / Parasite-free mice (n/total): once per day on 4 consecutive days
Description: Finally, we tested BH267.meta in vivo in a P. berghei-infected mouse malaria model. For comparison, we included the established antimalarials chloroquine, mefloquine, and artesunate in the assay. Efficacy was determined by a 4-day Peters’ test ([20], [21]) after oral administration of 30, 10, and 3 mg kg^−1 day^−1 for each antimalarial for four consecutive days. At 4 × 3 mg kg^−1 treatment with BH267.meta, parasitemia was at 0.2% after 4 days, while doses of 10 mg kg^−1 and higher decreased the parasitemia below the limit of quantitation (LOQ) of 0.1%. […] Artesunate yielded lower activity at 4 × 3 mg kg^−1. The average survival after BH267.meta treatment was similar to that after artesunate treatment and ranged from 8.0 d (3 mg kg^−1) to 13.0 d (30 mg kg^−1) due to recurring parasitemia (Table 1).
(§1) In vivo efficacy of BH267.meta against P. berghei was determined as previously described ([20], [21]). Mice were infected with a GFP-transfected P. berghei ANKA strain (donated by A. P. Waters and C. J. Janse, Leiden University, Leiden, The Netherlands), and parasitemia was determined using standard flow cytometry techniques. The detection limit was 0.1%, i.e., 1 parasite in 1,000 erythrocytes. Activity was calculated as the difference between the mean parasitemia for the control and treated groups (n = 3, each) expressed relative to the control group. BH267.meta was dissolved (3 mg kg ^−1 doses) or suspended (all higher doses) in 70/30 Tween 80/ethanol, diluted 10-fold with water, and administered orally as four consecutive daily doses (4, 24, 48, and 72 h after infection). […] different doses of BH267.meta were analyzed (30, 10, and 3 mg kg ^−1). In vivo efficacy against P. falciparum was conducted at The Art of Discovery, Derio, Spain according to the standard assay previously described ([22], [23]). Animal experiments against P. berghei were carried out at the Swiss Tropical and Public Health Institute and adhered to local and national regulations of laboratory animal welfare in Switzerland (awarded permission no. 1731). Protocols are regularly reviewed and revised following approval by the local authority (Veterinäramt Basel Stadt).

P. falciparum = P. falciparum SCID mouse model; type: in vivo; conditions: 50 mg kg−1 d−1 oral for four consecutive days, single animal; LOQ 0.01%
Description: In addition to the P. berghei efficacy assessment, we also evaluated BH267.meta in a P. falciparum severe combined immunodeficient (SCID) mouse model as previously described ([22], [23]). Efficacy was assessed following administration of 50 mg kg^−1 d^−1 for four consecutive days to a single animal (Fig. 7).
as §1, with “Animal experiments against P. berghei were carried out at the Swiss Tropical and Public Health Institute and adhered to local and national regulations of laboratory animal welfare in Switzerland (awarded permission no. 1731). Protocols are regularly reviewed and revised following approval by the local authority (Veterinäramt Basel Stadt).” left out

[1] = system: P. falciparum 3D7 blood stages; experiment: Stage-specific action of BH267.meta on synchronized parasites; type: cell-based, Plasmodium falciparum; conditions: IC90 of BH267.meta added at ring, trophozoite or schizont stage
Description: Asynchronous cultures containing ~2% schizonts were purified using a 60% Percoll gradient and split into 4 tubes containing […] fresh blood and culture medium, shaken at 37°C for 30 min at 800 rpm to permit newly released merozoites to invade red blood cells, and then transferred into four 5-mL culture dishes. […] The cultures were maintained with daily medium changes and replenishment of IC90 BH267.meta when drug treatment had already commenced for a culture. Giemsa smear and flow cytometry were performed as described previously ([32]), and samples were taken at regular intervals (daily or every 12 h).

[2] = system: P. falciparum parasite culture; set-up: method as in PMID 32816478; conditions: read-out: effectiveness in parasite culture; cited from earlier work
[3] = system: P. falciparum parasites with PfFNT G21E mutation; experiment: EC50 determination by flow cytometry, drug-selected parasites with PfFNT G21E; type: cell-based, Plasmodium falciparum; conditions: parasites with G21E amino acid change vs 3D7 wild-type
Description: (§2) P. falciparum parasites, 3D7, were cultured in RPMI 1640 medium supplemented with 0.5% Albumax with 0+ erythrocytes (University Medical Center Hamburg-Eppendorf, Hamburg, Germany) at a 5% hematocrit at 37°C in an atmosphere containing 5% CO2, 1% O2, and 94% N2 under standard conditions ([31]). To obtain resistant parasites, 50 mL of parasite culture, starting with 5 × 10^8 to 6 × 10^8 parasites, were exposed to 3 × IC50 of either MMV007839 or BH267.meta until parasitemia was established again (around 2 weeks). For sequencing of the fnt gene, genomic DNA from the susceptible and resistant P. falciparum parasite lines was obtained from 5 mL of culture using the QIAamp DNA minikit (Qiagen, Hilden, Germany). The primer sequences used to sequence the entire fnt gene are available in Table S2. To determine the EC50, asynchronous parasites (0.5% to 1% starting parasitemia) were exposed to serial dilutions of the drug and grown for 2 days with one change of medium (including the appropriate concentration of drug), after which the parasitemia was determined using an LSR II FACS (BD Biosciences, Franklin Lakes, NJ) as previously described ([32]). The data were analyzed in GraphPad Prism to determine EC50 values.

[4] = system: P. falciparum parasites with PfFNT V196L mutation; experiment: EC50 determination by flow cytometry, drug-selected parasites with PfFNT V196L; type: cell-based, Plasmodium falciparum; conditions: V196L mutation vs 3D7 wild-type
Description: as §2

SMILES	Activity (%) (P. berghei; 3 mg kg−1 day−1 oral)	Survival (P. berghei; 3 mg kg−1 day−1 oral) [days]	Activity (%) (P. berghei; 10 mg kg−1 day−1 oral)	Survival (P. berghei; 10 mg kg−1 day−1 oral) [days]	Activity (%) (P. berghei; 30 mg kg−1 day−1 oral)	Survival (P. berghei; 30 mg kg−1 day−1 oral) [days]	parasitemia (P. falciparum) [%]	parasitemia after 4 days (P. berghei; 4 × 3 mg kg−1 oral) [%]	efficacy (P. berghei; all tested doses (30, 10, 3 mg kg−1 day−1, 4 days oral)) [%]	parasitemia (P. berghei; doses of 10 mg kg−1 and higher, 4 days oral, LOQ 0.1%) [%]	symptoms or side effects elicited by the compound (P. berghei; mice under treatment, 3-30 mg kg−1 day−1 oral for 4 days)	activity in mice (P. berghei; mouse malaria models) [%]	blood stage affected [1]	EC50 [2] [nM]	reduction in sensitivity compared to the 3D7 parasites [3]	fold increased IC50 [4] [fold]	Parasite-free mice (n/total) (P. berghei; 10 mg kg−1 day−1 oral)	Parasite-free mice (n/total) (P. berghei; 30 mg kg−1 day−1 oral)
C[C@H]1[C@H](OC(=O)CCC(=O)O)O[C@@H]2O[C@@]3(C)CC[C@H]4[C@H](C)CC[C@@H]1[C@@]24OO3 [Artesunate, artesunate]	85.0	8.8	99.1	8.1	99.0	9.2	–	–	–	–	–	–	–	–	–	–	–	–
O=C(/C=C(\O)C(F)(F)C(F)(F)F)c1cccnc1 [BH267.meta]	99.7	8.0	99.9	10.7	99.8	13.0	< 0.01	0.2	≥ 99.7	< 0.1	free of symptoms or side effects	> 99	specifically affects the trophozoite stage	240	no alteration in the response	–	–	–
COc1ccc(C(=O)/C=C(\O)C(F)(F)C(F)(F)F)cc1 [BH296]	–	–	–	–	–	–	–	–	–	–	–	–	–	–	3.0 fold	7.4	–	–
CCN(CC)CCCC(C)Nc1ccnc2cc(Cl)ccc12 (centres unmarked) [Chloroquine, chloroquine]	99.0	11.0	99.9	15.5	99.9	21.2	–	–	–	–	–	–	–	–	–	–	–	–
COc1ccc2c(c1)OC(O)(C(F)(F)C(F)(F)F)CC2=O (centres unmarked) [MMV007839]	–	–	–	–	–	–	–	–	–	–	–	–	–	–	8.4 fold	–	–	–
OC(c1cc(C(F)(F)F)nc2c(C(F)(F)F)cccc12)C1CCCCN1 (centres unmarked) [Mefloquine, mefloquine]	93.0	13.0	99.9	21.0	99.9	29.1	–	–	–	–	–	–	–	–	–	–	1/5	4/5
